In patent US8362000B2, “Azetidinyl diamides as monoacylglycerol lipase inhibitors” (Janssen Pharmaceutica NV, priority 2009, dated 2013):
Positions count from the first letter of the chain named. Like-named read-outs stand apart in the source and are kept apart here.

Legend:
MGL = target: T1, MGL (Rattus norvegicus, UniProt Q8R431); test: 2-AG accumulation assay in rat brain homogenate; format: biochemical; conditions: rat brain homogenate, 2-AG accumulation as percent of vehicle; for 2-AG accumulation, % of vehicle control at 0.01 µM: compound 0.01 μM, read-out: Rat Brain 2AG % VehCntrl (%) @ 0.01 μM; for 2-AG accumulation, % of vehicle control at 0.1 µM: compound 0.1 μM, read-out: Rat Brain 2AG % VehCntrl (%) @ 0.1 μM; for 2-AG accumulation, % of vehicle control at 1 µM: compound 1 μM, read-out: Rat Brain 2AG % VehCntrl (%) @ 1 μM; for 2-AG accumulation, % of vehicle control at 10 µM: compound 10 μM, read-out: Rat Brain 2AG % VehCntrl (%) @ 10 μM
T1 construct: one g rat brain was homogenized using a Polytron homogenizer; from tissue; host or cells: rat brain homogenate
T1 sequence (Q8R431 1-303): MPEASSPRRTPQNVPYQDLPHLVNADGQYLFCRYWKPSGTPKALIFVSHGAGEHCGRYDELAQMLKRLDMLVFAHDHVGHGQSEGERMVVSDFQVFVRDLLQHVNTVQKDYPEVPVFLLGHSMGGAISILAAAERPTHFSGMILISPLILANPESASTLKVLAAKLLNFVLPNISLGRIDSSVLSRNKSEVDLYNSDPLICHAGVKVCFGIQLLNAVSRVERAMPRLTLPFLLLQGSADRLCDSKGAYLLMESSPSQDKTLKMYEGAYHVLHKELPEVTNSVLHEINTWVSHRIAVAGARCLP

mutant MGL = target: T2, mutant MGL (Homo sapiens, UniProt Q99685, L169S/L176S); test: MGL ThermoFluor assay - mutant; format: binding
T2 sequence (Q99685 1-303 L169S/L176S): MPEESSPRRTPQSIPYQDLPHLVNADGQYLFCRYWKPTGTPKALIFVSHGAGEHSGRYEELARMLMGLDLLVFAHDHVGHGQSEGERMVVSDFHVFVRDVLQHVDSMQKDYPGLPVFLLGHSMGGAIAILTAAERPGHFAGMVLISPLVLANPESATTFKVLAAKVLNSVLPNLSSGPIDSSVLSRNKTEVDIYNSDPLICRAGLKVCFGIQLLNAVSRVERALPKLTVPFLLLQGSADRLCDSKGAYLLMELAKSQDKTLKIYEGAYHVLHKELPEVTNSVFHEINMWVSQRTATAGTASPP

[1] = tested on: CFA-induced paw radiant heat hypersensitivity; test: CFA-induced paw radiant heat hypersensitivity; format: in vivo, rat; conditions: Rattus norvegicus, po, 30 mg/kg p.o., HPβCD, last time point 180 or 300 min
Experimental: Each rat was placed in a test chamber on a warm glass surface and allowed to acclimate for approximately 10 min. A radiant thermal stimulus (beam of light) was then focused through the glass onto the plantar surface of each hind paw in turn. The thermal stimulus was automatically shut off by a photoelectric relay when the paw was moved or when the cut-off time was reached (20 sec for radiant heat at ˜5 amps). An initial (baseline) response latency to the thermal stimulus was recorded for each animal prior to the injection of complete Freund's adjuvant (CFA). […] Immediately following the post-CFA latency assessment, the indicated test compound or vehicle was administered orally.
The percent reversal (% R) of hypersensitivity was calculated in one of two different ways: 1) using group mean values or 2) using individual animal values. More specifically:
Method 2. For some compounds, the % R of hypersensitivity was calculated separately for each animal according to the following formula: % reversal=[(individual treatment response−individual CFA response)/(individual baseline response−individual CFA response)]×100. Results are given as a mean of the maximum % reversal values calculated for each individual animal.

[2] = target: T3, purified wild type MGL (wt-MGLL 6H-11-313) (Homo sapiens, UniProt Q99685)
T3 sequence (Q99685 1-303): T2 sequence (Q99685 1-303 L169S/L176S) with S169L, S176L

[3] = ThermoFluor thermal stability binding assay, read-out: MGL mutant ThermoFluor Kd
[4] = group mean values, read-out: CFA thermal hypersensitivity Method 1: peak % reversal
[5] = individual animal values, read-out: CFA thermal hypersensitivity Method 2: peak % reversal
[6] = ThermoFluor concentration-response, read-out: MGL mutant ThermoFluor Kd

| Compound | 2-AG accumulation, % of vehicle control at 0.01 µM (MGL) | 2-AG accumulation, % of vehicle control at 0.1 µM (MGL) | 2-AG accumulation, % of vehicle control at 1 µM (MGL) | 2-AG accumulation, % of vehicle control at 10 µM (MGL) | Kd (mutant MGL; [3]) | inhibition in vivo at 30 mg/kg [1, 4] | inhibition in vivo at 30 mg/kg [1, 5] | IC50 [2] | Kd (mutant MGL; [6]) | Kd (mutant MGL; ThermoFluor, compound concentration measured by qNMR, read-out: MGL mutant ThermoFluor qKd (μM) (using qNMR conc.)) |
| --- | --- | --- | --- | --- | --- | --- | --- | --- | --- | --- |
| O=C(c1ccc2nc(-c3ccc(C(F)(F)F)cc3)oc2c1)N1CC(N2CCN(C(=O)c3nccs3)CC2)C1 [Cpd 314, 6-({3-[4-(1,3-Thiazol-2-ylcarbonyl)piperazin-1-yl]azetidin-1-yl}carbonyl)-2-[4-(trifluoromethyl)phenyl]-1,3-benzoxazole] | 175% | 237% | 512% | 553% | 0.0392 µM | 41% | 41.2% | < 5 nM | – | – |
| O=C(c1cc2cc(C(F)(F)F)ccc2s1)N1CC(N2CCN(C(=O)c3nccs3)CC2)C1 [Cpd 316, 1-(1,3-Thiazol-2-ylcarbonyl)-4-(1-{[5-(trifluoromethyl)-1-benzothiophen-2-yl]carbonyl}azetidin-3-yl)piperazine] | 243% | 265% | 760% | 694% | 0.0165 µM | 69.3% | 70.8% | < 5 nM | – | – |
| O=C(c1nccs1)N1CCN(C2CN(C(=O)c3sc4cc(C(F)(F)F)ccc4c3Cl)C2)CC1 [Cpd 324, 1-(1-{[3-Chloro-6-(trifluoromethyl)-1-benzothiophen-2-yl]carbon-yl}azetidin-3-yl)-4-(1,3-thiazol-2-ylcarbonyl)piperazine] | – | 941% | – | – | 0.0004 µM | 48.7% | 55.8% | < 5 nM | – | – |
| O=C(c1ccccc1)N1CCN(C2CN(C(=O)c3cc4ccc(C(F)(F)F)cc4s3)C2)CC1 [Cpd 325, 1-(Phenylcarbonyl)-4-(1-{[6-(trifluoromethyl)-1-benzothiophen-2-yl]carbonyl}azetidin-3-yl)piperazine] | – | – | 478% | – | 0.0927 µM | 62.1% | 63.1% | 69.5 nM | – | – |
| O=C(c1ccccc1)N1CCN(C2CN(C(=O)c3sc4cc(Br)ccc4c3Cl)C2)CC1 [Cpd 331] | – | – | 310% | – | 0.0069 µM | 14.3% | – | 45.7 nM | – | – |
| O=C(c1cscn1)N1CCN(C2CN(C(=O)c3sc4cc(Br)ccc4c3Cl)C2)CC1 [Cpd 333, 1-{1-[(6-Bromo-3-chloro-1-benzothiophen-2-yl)carbonyl]azetidin-3-yl}-4-(1,3-thiazol-4-ylcarbonyl)piperazine] | – | – | 291% | – | 0.0039 µM | 27.7% | – | 16.2 nM | – | – |
| O=C(c1cscn1)N1CCN(C2CN(C(=O)c3cc4ccc(C(F)(F)F)cc4s3)C2)CC1 [Cpd 337] | 103% | 166% | 272% | 671% | 0.0498 µM | 14.3% | 17.6% | 13 nM | – | – |
| O=C(c1cscn1)N1CCN(C2CN(C(=O)c3sc4cc(-c5ccccc5)ccc4c3Cl)C2)CC1 [Cpd 345] | – | – | 744% | – | 0.0031 µM | 25% | 26.3% | < 5 nM | – | – |
| O=C(c1ccc(OCc2ccccn2)c(Cl)c1)N1CC(N2CCN(C(=O)c3nccs3)CC2)C1 [Cpd 407, 1-(1-{[3-Chloro-4-(pyridine-2-ylmethoxy)phenyl]carbon-yl}azetidin-3-yl)-4-(1,3-thiazol-2-ylcarbonyl)piperazine] | – | 127% | 441% | 743% | 0.0988 µM | 1.6% | 1.4% | 50.6 nM | – | – |
| Cc1nc(-c2cccc(C(F)(F)F)c2)sc1C(=O)N1CC(N2CCN(C(=O)c3cscn3)CC2)C1 [Cpd 485, 1-[1-({4-Methyl-2-[3-(trifluoromethyl)phenyl]-1,3-thiazol-5-yl}carbonyl)azetidin-3-yl]-4-(1,3-thiazol-4-ylcarbonyl)piperazine] | – | 208% | 396% | 818% | – | 34.4% | 32.3% | 102 nM | 0.0257 µM | – |
| Cc1cc(-c2ccccc2)ccc1C(=O)N1CC(N2CCN(C(=O)c3cscn3)CC2)C1 [Cpd 488, 1-{1-[(3-Methylbiphenyl-4-yl)carbonyl]azetidin-3-yl}-4-(1,3-thiazol-4-ylcarbonyl)piperazine] | – | 219% | 248% | 681% | 0.321 µM | 78% | 85.5% | 382 nM | – | – |
| Cc1nc(-c2ccc(Cl)cc2)sc1C(=O)N1CC(N2CCN(C(=O)c3nccs3)CC2)C1 [Cpd 489, 1-(1-{[2-(4-Chlorophenyl)-4-methyl-1,3-thiazol-5-yl]carbonyl}azetidin-3-yl)-4-(1,3-thiazol-2-ylcarbonyl)piperazine] | 119% | 235% | 790% | 950% | – | 27.1% | 43.5% | 9 nM | 0.0104 µM | – |
| Cc1nc(-c2cccc(Cl)c2)sc1C(=O)N1CC(N2CCN(C(=O)c3nccs3)CC2)C1 [Cpd 490, 1-(1-{[2-(3-Chlorophenyl)-4-methyl-1,3-thiazol-5-yl]carbonyl}azetidin-3-yl)-4-(1,3-thiazol-2-ylcarbonyl)piperazine] | 208% | 343% | 756% | 886% | – | 18.4% | 19.7% | 22.3 nM | 0.0084 µM | – |
| O=C(c1ccccc1)N1CCN(C2CN(C(=O)c3sc4cc(C(F)(F)F)ccc4c3F)C2)CC1 [Cpd 509] | – | – | 242% | – | – | 17.8% | – | 136 nM | 0.033 µM | – |
| O=C(c1ccccc1)N1CCN(C2CN(C(=O)c3ccc4c(ccn4-c4ccc(F)c(F)c4)c3)C2)CC1 [Cpd 571, 1-(3,4-Difluorophenyl)-5-({3-[4-(phenylcarbonyl)piperazin-1-yl]azetidin-1-yl}carbonyl)-1H-indole] | – | – | 307% | – | 0.046 µM | 133% | – | 28 nM | – | 0.08 µM |
| O=C(c1ccccc1)N1CCN(C2CN(C(=O)c3ccc4c(-c5cccc(C(F)(F)F)c5)c[nH]c4c3)C2)CC1 [Cpd 572] | – | – | 397% | – | – | -5.1% | – | 31 nM | 0.03 µM | – |
